In series [1] the test system is Gibco hiPSCs. Kind of series: qRT-PCR of 3D fibrin cultures of hiPSCs during LPM differentiation. The class given is cell-based, human. The conditions noted are these: thalidomide 20 µM, atRA 3 µM, 2 d in APEL2+GSKi, fibrin 3D. The protocol: For 3D differentiation studies, Gibco hiPSCs were encapsulated in fibrin at 2–4 × 10^6 cells/mL. hiPSCs were passaged with Versene (as described above) and were suspended as small clumps in a solution composed of a 1:4:5:10 dilution of 200 mM CaCl2 in DI water, 50 U/mL human thrombin (Sigma) in 0.1% cell culture BSA in DI water, DPBS, and hiPSC suspension in mTeSR1. The hiPSC suspension was mixed by pipetting, and 0.5 µL droplets of suspended hiPSCs were plated at the bottom of each well of a round-bottom sterile polypropylene plate. hiPSC suspensions were subsequently diluted 5-fold by pipetting up and down in each well with 2 µL of 10 mg/mL human fibrinogen (Sigma) in DPBS (sterile filtered prior to use). Fibrin clot formation proceeded for 10 minutes at room temperature prior to addition of mTeSR-1 and incubation under normal culture conditions overnight. […] For chondrogenic differentiation experiments, cells were cultured in APEL2 + GSKi for the described duration, followed by culture in ACF MesenCult chondrogenic differentiation medium (Stem Cell Technologies) for 17–20 days under normal culture conditions. […]
(black bars). Data are presented as mean ± SEM of the log2 fold change calculated from each sample relative to the ACTB housekeeper control and the DMSO control (normalized via the 2-ΔΔCT method) from three independent experiments. […]
Background: Real-time PCR tracks product formation cycle by cycle.

The subject of series [2] is Gibco hiPSCs. Nature of the series: LPM differentiation assay (FOXF1 high content imaging), Gibco hiPSCs. The conditions noted are these: for IC50: Homo sapiens, 48 h, read-out: IC50 (±SEM) in LPM differentiation assay.
Experimental: (§7) hiPSCs (Gibco or XCL-1 clones) were grown in mTeSR-1 on Matrigel, passaged into small clumps with Versene (4.5 min under normal culture conditions), counted as a single-cell suspension as described above, and seeded as small clumps at approximately 10,000 cells/well (30,000 cells/cm^2, ~15% confluence) in 100 µL mTeSR1 on Matrigel-coated µClear® 96-well plates (Greiner) for 1 d under normal culture conditions. On the day after seeding, the medium was replaced with 100 µL/well of mTeSR-1 (control) or APEL2 + GSKi containing either DMSO or diluted compounds (for a final DMSO concentration of 0.2%). The same conditions were replenished the following day for a total of 2 d of differentiation, and the following day (3 d after seeding), the medium was aspirated, and hiPSCs were fixed in 10% NBF for 15 min at room temperature.
(§8) Immunofluorescence staining was carried out by fixing/permeabilizing cells overnight in blocking buffer containing 3% BSA (Sigma) in DPBS-T, which contains DPBS + Ca^2+//Mg^2+ with 0.3% Triton-X100 (Sigma). Fixed and permeabilized cells were incubated in primary antibodies diluted (as noted in Table 1) in antibody buffer, consisting of 1% BSA in DPBS-T, overnight at 4 °C.
(§9) Cells were washed in blocking buffer for >6 hours at 4 °C and subsequently incubated in secondary antibody diluted in antibody buffer overnight at 4 °C. Secondary antibodies were washed out in antibody buffer for >4 h at 4 °C, and hiPSCs were counterstained with DAPI (Fisher) at 10 µg/mL in DPBS-T for 2 h. hiPSCs were washed in DPBS-T for >2 h at 4 °C, and immediately before imaging, the DPBS-T was replaced with DPBS. […] Chemical dose-response experiments and experiments examining the time-course of marker expression during LPM differentiation were imaged at 10X magnification using the Cellomics ArrayScan or CellInsight Cx7 LZR High Content Screening Platform and HCS Studio Cell Analysis Software (Thermo Fisher). An artificial threshold was uniformly applied to all images to generate the percentage of DAPI+ nuclei that stained positively for FOXF1 or NANOG. Thresholding for FOXF1 and T was performed relative to undiffer-entiated hiPSCs, and thresholding for SALL4 and OCT4 was performed relative to a non-expressing cell type (human primary endothelial cells). Settings for image acquisition and processing were uniformly applied between XCL-1 clones. […] Experiments were repeated in quadruplicate unless otherwise stated, and data are presented as mean ± SEM. Nonlinear regression analysis was performed using the 4-parameter [inhibitor]-vs-response curve fitting algorithm in Prism (GraphPad).
Series [3] deals with XCL-1 hiPSC SALL4^G416A. Kind of series: LPM differentiation assay (FOXF1 high content imaging), XCL-1 SALL4^G416A clone. The conditions noted are these: Homo sapiens, 48 h, read-out: IC50 (±SEM) in LPM differentiation assay.
Experimental: as §7, §8, §9
In addition, XCL-1 hiPSCs were engineered with CRISPR/Cas9 to express a homozygous SALL4 G416A mutation (hereafter referred to as the SALL4^G416A clone), and the homozygous SALL4 G416A mutation was confirmed by next-generation sequencing (Supplementary Fig. 2).
The subject of series [4] is XCL-1 hiPSC CRBN KO/KI. Kind of series: LPM differentiation assay (FOXF1 high content imaging), XCL-1 CRBN KO/KI clone. Type of series: cell-based, human. The conditions noted are these: for IC50: Homo sapiens, 48 h, XCL-1 CRBN KO/KI, % FOXF1+ cells after 2 d in APEL2+GSKi, read-out: IC50 (±SEM) in LPM differentiation assay.
Experimental: On the day after seeding, the medium was replaced with 100 µL/well of mTeSR-1 (control) or APEL2 + GSKi containing either DMSO or diluted compounds (for a final DMSO concentration of 0.2%). The same conditions were replenished the following day for a total of 2 d of differentiation, and the following day (3 d after seeding), the medium was aspirated, and hiPSCs were fixed in 10% NBF for 15 min at room temperature. For time-course experiments, cells were fixed at the specified intervals after the start of LPM differentiation.
as §8
Cells were washed in blocking buffer for >6 hours at 4 °C and subsequently incubated in secondary antibody diluted in antibody buffer overnight at 4 °C. Secondary antibodies were washed out in antibody buffer for >4 h at 4 °C, and hiPSCs were counterstained with DAPI (Fisher) at 10 µg/mL in DPBS-T for 2 h. hiPSCs were washed in DPBS-T for >2 h at 4 °C, and immediately before imaging, the DPBS-T was replaced with DPBS. Initial characterization of LPM differentiation by immunofluorescence was carried out using the A1R confocal microscope (Nikon) equipped with 10X objective, and automated object analysis was carried out using NIS Elements v5 software (Nikon). Chemical dose-response experiments and experiments examining the time-course of marker expression during LPM differentiation were imaged at 10X magnification using the Cellomics ArrayScan or CellInsight Cx7 LZR High Content Screening Platform and HCS Studio Cell Analysis Software (Thermo Fisher). An artificial threshold was uniformly applied to all images to generate the percentage of DAPI+ nuclei that stained positively for FOXF1 or NANOG. Thresholding for FOXF1 and T was performed relative to undiffer-entiated hiPSCs, and thresholding for SALL4 and OCT4 was performed relative to a non-expressing cell type (human primary endothelial cells). Settings for image acquisition and processing were uniformly applied between XCL-1 clones. The capacity of all XCL-1 clones and Gibco hiPSCs to undergo LPM differentiation in the high content format was assessed by FOXF1 and NANOG immunostaining. […] Experiments were repeated in quadruplicate unless otherwise stated, and data are presented as mean ± SEM. Nonlinear regression analysis was performed using the 4-parameter [inhibitor]-vs-response curve fitting algorithm in Prism (GraphPad).
Using CRISPR/Cas9-mediated gene editing, both CRBN alleles were knocked out in XCL-1 hiPSCs cells, followed by the insertion at the AAVS1 locus of a transgene encoding human CRBN with E377V and V388I mutations (clone hereafter referred to as CRBN KO/KI).
Series [5] has as its system hPSC. Further details: method as in PMID 24154490. Particulars: cited from earlier work.
For series [6], the system named is human pluripotent stem cells (hPSCs). The conditions noted are these: cited from earlier work.
The target in series [7] is T1, human SALL4 (Homo sapiens, UniProt Q9UJQ4).
T1 construct: expressed in transfected cells; host or cells: Lenti-x 293 CRBN CRISPR KO (CRBN-/-) cells stably expressing human SALL4, transiently transfected with FLAG-CRBN variants
Kind of series: Immunoblot of SALL4 degradation in Lenti-x 293 CRBN-/- cells expressing human CRBN variants. Type of series: cell-based. The conditions noted are these: 20 µM thalidomide, 10 µM lenalidomide, 1 µM pomalidomide, 24 hours; relative to wild-type human CRBN.
Text: SALL4 were transiently transfected with vectors expressing GFP or human CRBN variants and treated with
CRBN-/- cells transfected with empty vector were used as a negative control. The cells were then lysed and
characterized by immunoblotting analysis for SALL4, ZFP91, GFP, CRBN, and β-actin.
CRBN CRISPR KO (CRBN -/-) cells were maintained in Dulbecco’s Modified Eagle’s medium (DMEM;
Invitrogen) supplemented with 10% fetal bovine serum (FBS; Invitrogen). All cell lines were confirmed
mycoplasma-negative using the MycoAlert Mycoplasma Detection Kit (Lonza).
CRBN-/- cells stably expressing human SALL4 was transiently transfected with 4 µg of pcDNA3-GFP, pcDNA3-
FLAG-CRBN WT (isoform 1),pcDNA3-FLAG-CRBN E377V (isoform 1) or pcDNA3-FLAG-CRBN V388I (isoform
Cells were then harvested and lysed, and
whole cell extract was subjected to immunoblotting analysis. Cells were washed with ice-cold 1X PBS and
lysed in 50mM Tris-HCl [pH 7.6], 150 mM NaCl, 1% Triton X-100, and 1x Complete ULTRA protease inhibitor
cocktail and PhosSTOP phosphatase inhibitor cocktail. Whole cell extracts were collected after
centrifugation at top speed for 10 minutes, resolved by sodium dodecyl sulfate polyacrylamide gel
electrophoresis, transferred onto a nitrocellulose membrane using the Turboblot system (Bio-Rad), and
probed with the indicated primary antibodies. Bound antibodies were detected with IRDye®-680 or -800 […]

Series [8] concerns XCL-1 hiPSC SALL4 Mock. Nature of the series: cells. Particulars: Homo sapiens, 72 h; XCL-1 SALL4 Mock; 3 d differentiation; read-out: IC50 (±SEM) in SOX17 differentiation assay. Type of series: cell-based. The protocol: (§1) The assay was carried out as previously described with continuous dosing of chemical for 3 total days of differentiation. SOX17 staining and DAPI counter-staining were carried out as described, and assays were imaged via high content imaging. […]
(§2) Supplementary Figure 7. Dose-response characterization of the influence […]
(§3) of XCL-1 clones. High content imaging analysis of XCL-1 hiPSC clones that were differentiated for 3 days in the presence of compound and subsequently stained for SOX17 and counter-stained with DAPI. Untreated DMSO control is omitted. Data represent the mean +/- SEM %SOX17 cells
(§4) (relative to control) from 4 independent experiments. Nonlinear regression […]
(§5) variable slope plotting tool in GraphPad Prism. A-C: Dose-response […]
(§6) in cereblon mock (hollow circles) or CRBN KO/KI (red filled circles) clones. D- […]

The subject of series [9] is XCL-1 hiPSC CRBN KO/KI. Kind of series: cells. Type of series: cell-based. The conditions noted are these: Homo sapiens, 72 h; XCL-1 CRBN KO/KI; 3 d differentiation; read-out: IC50 (±SEM) in SOX17 differentiation assay. The procedure:
as §1, §2, §3, §4, §5, §6

Series [10] deals with XCL-1 hiPSC CRBN Mock. Nature of the series: cells. Type of series: cell-based. Particulars: Homo sapiens, 72 h; XCL-1 CRBN Mock; 3 d differentiation; read-out: IC50 (±SEM) in SOX17 differentiation assay. The procedure: as §1, §2, §3, §4, §5, §6
The test system of series [11] is XCL-1 hiPSC SALL4^G416A. Kind of series: cells. The class given is cell-based. The conditions noted are these: Homo sapiens, 72 h; XCL-1 SALL4^G416A; 3 d differentiation; read-out: IC50 (±SEM) in SOX17 differentiation assay. The protocol:
as §1, §2, §3, §4, §5, §6

The target of series [12] is T2, SALL4 (Homo sapiens, UniProt Q96SW2+Q9UJQ4).
T2 construct: Unmodified Gibco hiPSCs were either differentiated in APEL2 + GSKi or maintained in mTeSR1, and SALL4 nuclear protein expression was monitored; endogenous in cells; host or cells: Gibco hiPSCs; XCL-1 SALL4 mock hiPSC clone
Nature of the series: SALL4 MFI by high content imaging, XCL-1 SALL4 mock hiPSCs. Particulars: SALL4 mock control hiPSCs, 8 h of treatment. Type of series: cell-based. The text has this:
High content imaging analysis of SALL4 immunofluorescence with DAPI counterstaining in hiPSCs. […] Data represent the mean +/− SEM from 2 independent experiments.

Entries after “also recorded” stand apart in the source; their conditions may differ.

T2 sequence (Q9UJQ4 whole entry): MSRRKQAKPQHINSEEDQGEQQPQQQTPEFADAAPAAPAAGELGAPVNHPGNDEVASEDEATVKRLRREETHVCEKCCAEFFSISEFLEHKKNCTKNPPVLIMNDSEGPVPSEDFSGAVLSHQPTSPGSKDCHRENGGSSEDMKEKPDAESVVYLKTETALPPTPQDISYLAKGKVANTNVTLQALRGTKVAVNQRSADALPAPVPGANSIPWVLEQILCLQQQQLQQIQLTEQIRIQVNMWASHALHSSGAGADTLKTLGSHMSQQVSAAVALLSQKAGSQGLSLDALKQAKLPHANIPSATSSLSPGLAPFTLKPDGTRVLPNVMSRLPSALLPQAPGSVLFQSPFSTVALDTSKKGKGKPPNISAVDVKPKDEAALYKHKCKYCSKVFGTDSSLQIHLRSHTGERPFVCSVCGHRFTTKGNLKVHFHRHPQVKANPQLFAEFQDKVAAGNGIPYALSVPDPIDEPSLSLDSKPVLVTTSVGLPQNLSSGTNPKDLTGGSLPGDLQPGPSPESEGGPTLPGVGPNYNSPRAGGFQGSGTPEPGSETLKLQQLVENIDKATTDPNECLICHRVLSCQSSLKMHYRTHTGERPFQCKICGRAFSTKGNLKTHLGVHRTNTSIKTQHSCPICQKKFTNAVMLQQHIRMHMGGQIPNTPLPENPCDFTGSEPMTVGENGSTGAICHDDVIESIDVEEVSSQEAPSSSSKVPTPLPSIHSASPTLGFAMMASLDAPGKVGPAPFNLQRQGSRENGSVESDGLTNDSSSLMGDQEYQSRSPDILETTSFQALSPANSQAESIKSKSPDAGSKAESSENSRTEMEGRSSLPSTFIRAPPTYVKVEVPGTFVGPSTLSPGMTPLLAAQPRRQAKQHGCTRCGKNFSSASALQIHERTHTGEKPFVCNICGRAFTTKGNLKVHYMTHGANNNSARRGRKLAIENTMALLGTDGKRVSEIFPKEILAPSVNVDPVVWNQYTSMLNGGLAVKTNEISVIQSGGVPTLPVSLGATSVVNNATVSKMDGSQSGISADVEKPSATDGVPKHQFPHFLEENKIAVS
T2 sequence (Q96SW2 whole entry): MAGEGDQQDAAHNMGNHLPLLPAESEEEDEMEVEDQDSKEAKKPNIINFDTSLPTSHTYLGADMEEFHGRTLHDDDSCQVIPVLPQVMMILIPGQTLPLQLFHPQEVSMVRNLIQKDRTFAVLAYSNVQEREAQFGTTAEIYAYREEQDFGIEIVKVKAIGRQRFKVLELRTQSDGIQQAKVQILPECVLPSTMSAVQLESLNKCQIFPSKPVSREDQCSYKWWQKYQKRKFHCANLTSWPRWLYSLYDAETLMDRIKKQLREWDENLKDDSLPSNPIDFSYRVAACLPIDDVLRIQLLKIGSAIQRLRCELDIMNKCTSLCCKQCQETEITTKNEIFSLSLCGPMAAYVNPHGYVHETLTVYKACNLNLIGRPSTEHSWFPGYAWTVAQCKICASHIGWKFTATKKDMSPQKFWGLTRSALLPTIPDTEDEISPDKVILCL
T2 sequence (Q16531 whole entry partner): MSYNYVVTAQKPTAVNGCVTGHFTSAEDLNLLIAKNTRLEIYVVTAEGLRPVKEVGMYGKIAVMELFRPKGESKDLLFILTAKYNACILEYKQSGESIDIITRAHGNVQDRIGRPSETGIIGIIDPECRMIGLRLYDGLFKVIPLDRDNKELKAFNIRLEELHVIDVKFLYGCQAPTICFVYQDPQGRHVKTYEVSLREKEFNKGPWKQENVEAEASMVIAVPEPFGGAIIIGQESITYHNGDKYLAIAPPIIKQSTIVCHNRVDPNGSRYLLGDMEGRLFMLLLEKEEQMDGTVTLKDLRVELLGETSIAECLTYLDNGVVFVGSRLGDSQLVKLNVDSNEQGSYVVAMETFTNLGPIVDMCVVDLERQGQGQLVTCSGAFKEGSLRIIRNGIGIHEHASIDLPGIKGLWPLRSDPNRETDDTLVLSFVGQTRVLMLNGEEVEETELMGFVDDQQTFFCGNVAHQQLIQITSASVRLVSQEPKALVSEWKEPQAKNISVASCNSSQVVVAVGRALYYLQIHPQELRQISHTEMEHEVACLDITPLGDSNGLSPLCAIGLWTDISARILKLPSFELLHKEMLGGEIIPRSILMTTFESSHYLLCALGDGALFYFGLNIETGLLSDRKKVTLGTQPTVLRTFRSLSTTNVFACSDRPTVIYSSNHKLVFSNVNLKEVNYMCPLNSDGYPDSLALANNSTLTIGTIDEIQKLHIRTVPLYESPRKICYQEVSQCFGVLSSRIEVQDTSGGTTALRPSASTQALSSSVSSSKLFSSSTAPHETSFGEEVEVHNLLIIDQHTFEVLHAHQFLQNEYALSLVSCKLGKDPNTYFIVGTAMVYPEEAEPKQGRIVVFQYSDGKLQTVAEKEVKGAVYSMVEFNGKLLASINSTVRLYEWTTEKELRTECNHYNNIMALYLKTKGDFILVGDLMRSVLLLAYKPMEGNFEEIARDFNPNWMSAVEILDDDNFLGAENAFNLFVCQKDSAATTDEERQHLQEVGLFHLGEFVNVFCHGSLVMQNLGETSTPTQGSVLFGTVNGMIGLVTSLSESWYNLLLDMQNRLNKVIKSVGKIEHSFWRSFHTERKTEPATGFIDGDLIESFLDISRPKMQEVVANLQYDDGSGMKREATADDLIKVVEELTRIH
T1 sequence (Q96SW2 whole entry partner): as the sequence (Q96SW2 whole entry) above
T1 sequence (Q16531 whole entry partner): as the sequence (Q16531 whole entry partner) above
T1 sequence (Q9UJQ4 whole entry): as the sequence (Q9UJQ4 whole entry) above

One may read the IC50 as the concentration needed to halve the response being measured. As for `CC1=C(/C=C/C(C)=C/C=C/C(C)=C/C(=O)O)C(C)(C)CCC1` [atRA, all-trans retinoic acid], the “effect on marker gene expression in 3D LPM differentiation” value in series [1] is “reduced FOXF1 and KDR expression; also recorded: reduced the expression of TBXT and GATA4”. The half-maximal inhibitory concentration (IC50) in [2] was found to be 0.82 ± 0.78 µM; in series [3] it was 9.1 ± 5.9 µM; in series [4] it was 8.17 ± 5.1 µM.

With `O=C1CCC(N2C(=O)c3ccccc3C2=O)C(=O)N1` (stereo not drawn) [Thalidomide, thalidomide], in series [5], the “non-cytotoxic concentrations at which the definitive endoderm assay was sensitive” value is listed as “below 1 µM”. Moreover, the “effect on marker gene expression in 3D LPM differentiation” value in series [1] was “reduced FOXF1 and KDR expression”. Further, the IC50 in [2] is 0.31 ± 0.19 µM; in [3], over 50 µM; in [8] it was 1.8 ± 2.6 µM; in series [9], over 50 µM; in series [10] it was 1.9 ± 2.3 µM; in series [11], over 50 µM. Further, the IC50 in series [4] is over 50 µM. The “reduction of %FOXF1+ cells via high content imaging” value in [2] (thalidomide at 20 µM, atRA at 3 µM, during LPM differentiation) is recorded as 30%. Moreover, in series [6], the “concentrations with cytotoxicity or functional effects on hPSCs and hPSC-derived mesoderm” value is “above 100 µM”. Moreover, the “SALL4 degradation in human cells expressing CRBN with the V388I mutation” value in [7] is given as “failed to induce SALL4 degradation”. For the same molecule, the “inhibition of LPM differentiation at the highest concentration tested” value in series [4] (50 µM, CRBN KO/KI clone) is given as “inhibited LPM differentiation albeit not to the same magnitude as control hiPSCs”. The “effect on SALL4 MFI” value in series [12] was “potently reduced SALL4 MFI”.

The values above are taken from publication PMC7046148 (Scientific Reports, 2020).
